Data published in the NIST ThermoML archive (doi:10.1021/je5004719).

Experiment: xn = mol fraction of the nth substance listed
Settings: 101 kPa, Liquid; for speed of sound: Sing-around technique in a fixed-path interferometer; for mass density: Vibrating tube method

C1CCOCC1 [tetrahydropyran] + c1ccccc1
Settings | mass density, 298.15 K [kg/m3] | mass density, 303.15 K [kg/m3] | speed of sound, 298.15 K [m/s] | speed of sound, 303.15 K [m/s]
x1 = 0.0789 | 874.6 | 869.25 | 1298.9 | 1274
x1 = 0.1324 | 875.21 | 869.87 | 1298.2 | 1272.5
x1 = 0.1784 | 875.68 | 870.35 | 1297.5 | 1271.2
x1 = 0.2239 | 876.1 | 870.78 | 1296.6 | 1269.8
x1 = 0.2876 | 876.63 | 871.32 | 1295.2 | 1267.9
x1 = 0.3276 | 876.92 | 871.63 | 1294.2 | 1266.7
x1 = 0.3769 | 877.26 | 871.97 | 1292.9 | 1265.2
x1 = 0.4285 | 877.58 | 872.3 | 1291.4 | 1263.6
x1 = 0.4794 | 877.87 | 872.59 | 1289.8 | 1262
x1 = 0.5598 | 878.27 | 872.99 | 1287.2 | 1259.6
x1 = 0.6024 | 878.46 | 873.17 | 1285.8 | 1258.3
x1 = 0.6534 | 878.66 | 873.37 | 1284 | 1256.9
x1 = 0.7006 | 878.82 | 873.53 | 1282.3 | 1255.5
x1 = 0.7432 | 878.95 | 873.65 | 1280.7 | 1254.2
x1 = 0.7943 | 879.07 | 873.77 | 1278.8 | 1252.8
x1 = 0.8213 | 879.12 | 873.83 | 1277.7 | 1252
x1 = 0.8763 | 879.18 | 873.92 | 1275.4 | 1250.4
x1 = 0.9148 | 879.2 | 873.96 | 1273.7 | 1249.3

Cc1ccccc1Cl [2-chlorotoluene] + Cc1ccccc1
Settings | mass density, 298.15 K [kg/m3] | mass density, 303.15 K [kg/m3] | mass density, 308.15 K [kg/m3] | speed of sound, 298.15 K [m/s] | speed of sound, 303.15 K [m/s] | speed of sound, 308.15 K [m/s]
x1 = 0.0935 | 884.2 | 879.51 | 874.8 | 1302 | 1281.3 | 1260.6
x1 = 0.1346 | 893.74 | 889.04 | 884.33 | 1301.2 | 1280.6 | 1260.2
x1 = 0.1681 | 901.47 | 896.76 | 892.04 | 1300.5 | 1280.2 | 1259.9
x1 = 0.2393 | 917.7 | 912.99 | 908.26 | 1299.5 | 1279.4 | 1259.3
x1 = 0.2782 | 926.47 | 921.75 | 917.02 | 1299 | 1279 | 1259
x1 = 0.3342 | 938.97 | 934.25 | 929.51 | 1298.5 | 1278.7 | 1258.8
x1 = 0.3871 | 950.65 | 945.92 | 941.17 | 1298.1 | 1278.5 | 1258.7
x1 = 0.4375 | 961.66 | 956.92 | 952.17 | 1297.9 | 1278.3 | 1258.7
x1 = 0.4872 | 972.41 | 967.66 | 962.89 | 1297.7 | 1278.3 | 1258.8
x1 = 0.5312 | 981.84 | 977.07 | 972.3 | 1297.6 | 1278.3 | 1259
x1 = 0.5912 | 994.55 | 989.78 | 984.99 | 1297.4 | 1278.4 | 1259.3
x1 = 0.6218 | 1001 | 996.2 | 991.4 | 1297.4 | 1278.5 | 1259.5
x1 = 0.6753 | 1012.1 | 1007.3 | 1002.5 | 1297.4 | 1278.7 | 1260
x1 = 0.7231 | 1022 | 1017.2 | 1012.3 | 1297.4 | 1278.9 | 1260.4
x1 = 0.7854 | 1034.7 | 1029.9 | 1025 | 1297.6 | 1279.2 | 1261
x1 = 0.8351 | 1044.7 | 1039.9 | 1035 | 1297.7 | 1279.5 | 1261.5
x1 = 0.8824 | 1054.2 | 1049.3 | 1044.5 | 1297.9 | 1279.8 | 1262
x1 = 0.9231 | 1062.3 | 1057.4 | 1052.5 | 1298.1 | 1280.1 | 1262.3

Cc1ccccc1Cl [2-chlorotoluene] + Cc1ccccc1C
Settings | mass density, 298.15 K [kg/m3] | mass density, 303.15 K [kg/m3] | mass density, 308.15 K [kg/m3] | speed of sound, 298.15 K [m/s] | speed of sound, 303.15 K [m/s] | speed of sound, 308.15 K [m/s]
x1 = 0.0872 | 893.06 | 888.78 | 884.5 | 1341.6 | 1321.9 | 1302.1
x1 = 0.1276 | 901.04 | 896.73 | 892.42 | 1339.4 | 1319.8 | 1300.2
x1 = 0.1754 | 910.51 | 906.16 | 901.82 | 1337 | 1317.4 | 1298
x1 = 0.2243 | 920.22 | 915.84 | 911.46 | 1334.4 | 1315 | 1295.6
x1 = 0.2765 | 930.61 | 926.19 | 921.78 | 1331.8 | 1312.4 | 1293.1
x1 = 0.3241 | 940.11 | 935.66 | 931.22 | 1329.4 | 1310.1 | 1290.8
x1 = 0.3762 | 950.54 | 946.05 | 941.57 | 1326.8 | 1307.6 | 1288.4
x1 = 0.4216 | 959.64 | 955.13 | 950.62 | 1324.6 | 1305.4 | 1286.3
x1 = 0.4932 | 974.04 | 969.48 | 964.92 | 1321.2 | 1302.1 | 1283.1
x1 = 0.5243 | 980.31 | 975.73 | 971.15 | 1319.7 | 1300.7 | 1281.8
x1 = 0.5721 | 989.96 | 985.35 | 980.74 | 1317.5 | 1298.6 | 1279.8
x1 = 0.6158 | 998.81 | 994.17 | 989.52 | 1315.5 | 1296.7 | 1278
x1 = 0.6761 | 1011 | 1006.4 | 1001.7 | 1312.7 | 1294.1 | 1275.6
x1 = 0.7245 | 1020.9 | 1016.2 | 1011.4 | 1310.6 | 1292.1 | 1273.7
x1 = 0.7865 | 1033.5 | 1028.8 | 1024 | 1307.8 | 1289.6 | 1271.3
x1 = 0.8254 | 1041.5 | 1036.7 | 1031.9 | 1306.1 | 1288 | 1269.8
x1 = 0.8795 | 1052.5 | 1047.7 | 1042.9 | 1303.8 | 1285.8 | 1267.7
x1 = 0.9192 | 1060.7 | 1055.9 | 1051 | 1302.1 | 1284.1 | 1266.1

Cc1ccccc1C [1,2-dimethylbenzene] + C1CCOCC1
Settings | mass density, 298.15 K [kg/m3] | mass density, 303.15 K [kg/m3] | speed of sound, 298.15 K [m/s] | speed of sound, 303.15 K [m/s]
x2 = 0.0908 | 876.43 | 872.06 | 1345.3 | 1323.7
x2 = 0.1432 | 876.68 | 872.25 | 1343.1 | 1321
x2 = 0.1897 | 876.87 | 872.4 | 1340.4 | 1317.9
x2 = 0.2318 | 877.04 | 872.53 | 1337.4 | 1314.7
x2 = 0.2953 | 877.26 | 872.71 | 1332.1 | 1309.2
x2 = 0.331 | 877.39 | 872.81 | 1328.8 | 1305.9
x2 = 0.3872 | 877.57 | 872.95 | 1323.2 | 1300.4
x2 = 0.4287 | 877.7 | 873.05 | 1319 | 1296.2
x2 = 0.4792 | 877.86 | 873.17 | 1313.7 | 1291
x2 = 0.5187 | 877.99 | 873.26 | 1309.6 | 1286.9
x2 = 0.5725 | 878.16 | 873.38 | 1304.1 | 1281.4
x2 = 0.6182 | 878.31 | 873.48 | 1299.5 | 1276.8
x2 = 0.6682 | 878.47 | 873.58 | 1294.6 | 1272
x2 = 0.7187 | 878.62 | 873.67 | 1290 | 1267.3
x2 = 0.7729 | 878.78 | 873.77 | 1285.3 | 1262.5
x2 = 0.8367 | 878.94 | 873.86 | 1280.2 | 1257.3
x2 = 0.8952 | 879.05 | 873.93 | 1276.1 | 1253.1
x2 = 0.9274 | 879.1 | 873.96 | 1274 | 1251

C1CCOCC1 [tetrahydropyran] + Cc1ccccc1
Settings | mass density, 298.15 K [kg/m3] | mass density, 303.15 K [kg/m3] | speed of sound, 298.15 K [m/s] | speed of sound, 303.15 K [m/s]
x1 = 0.0834 | 863.93 | 859.19 | 1303.2 | 1281.1
x1 = 0.1245 | 864.77 | 859.99 | 1302.3 | 1280
x1 = 0.1765 | 865.79 | 860.99 | 1301.2 | 1278.7
x1 = 0.2387 | 866.99 | 862.15 | 1299.7 | 1277.1
x1 = 0.3017 | 868.16 | 863.3 | 1298.1 | 1275.3
x1 = 0.3541 | 869.11 | 864.23 | 1296.6 | 1273.8
x1 = 0.4098 | 870.1 | 865.2 | 1295 | 1272.2
x1 = 0.4467 | 870.74 | 865.83 | 1293.9 | 1271
x1 = 0.4915 | 871.51 | 866.59 | 1292.5 | 1269.5
x1 = 0.5487 | 872.47 | 867.53 | 1290.6 | 1267.5
x1 = 0.6008 | 873.33 | 868.36 | 1288.8 | 1265.6
x1 = 0.6472 | 874.08 | 869.09 | 1287.1 | 1263.7
x1 = 0.6954 | 874.84 | 869.83 | 1285.2 | 1261.8
x1 = 0.7321 | 875.41 | 870.38 | 1283.7 | 1260.2
x1 = 0.7832 | 876.18 | 871.13 | 1281.5 | 1257.9
x1 = 0.8241 | 876.78 | 871.71 | 1279.6 | 1255.9
x1 = 0.8937 | 877.76 | 872.65 | 1276.1 | 1252.5
x1 = 0.9205 | 878.12 | 873 | 1274.6 | 1251.1
